For 58 compounds, EC50 results are on record in US20250388592A1 (REMYND N.V., priority 2022, published 2025).

As usually defined, the EC50 is the concentration at which the effect is half-maximal.

Structures are written as SMILES.

The experiment deals with M17_3TAU(P301L) cells. The experiment is described as follows: TAU-induced cytotoxicity (LDH) in the neuroblastoma tauopathy model. In kind it is cell-based. Particulars: Homo sapiens, 168 h, inhibition of TAU-induced toxicity, 7 days retinoic acid differentiation, LDH readout. Put shortly: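 Stably transfected BE-M17 cells expressing human TAU-P301L, seeded in serum-free detection medium, then differentiated with 2.5 μM RA (added in equal volume) for 7 days at 37° C/5% CO2 to induce TAU aggregation. Cytotoxicity = supernatant LDH increase over total LDH; EC50 from dose-dependent inhibition curves.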
`Fc1cc(F)cc(CNC2CC3(C2)CC(Nc2nc(Cc4ccc(Cl)cc4)ns2)C3)c1` (stereo not shown) [Cpd B329, N-(3-(4-chlorobenzyl)-1,2,4-thiadiazol-5-yl)-N′-(3,5-difluorobenzyl) spiro[3.3]heptane-2,6-diamine] displayed an EC50 of 2.3 nM.
As for `Cc1cnc(CN2CC3(C2)CN(C(=O)NCc2ccc(F)cc2)C3)s1` [Cpd B440], the figure is 260 nM; as for `O=C(OC1CCC(F)(F)CC1)N1CC2(CN(Cc3c(F)cccc3C(F)(F)F)C2)C1` [Cpd B148], 396 nM; as for `Cc1nc(CN2CC3(C2)CN(C(=O)CC2CCC(F)(F)CC2)C3)sc1C` [Cpd B451], 106 nM.
Compound `COc1cccc(OC)c1CNC1CC2(C1)CC(Nc1nc(Cc3ccc(Cl)cc3)ns1)C2` (stereo not shown) [Cpd B311, N-(3-(4-chlorobenzyl)-1,2,4-thiadiazol-5-yl)-N′-(2,6-dimethoxybenzyl) spiro[3.3]heptane-2,6-diamine] showed a concentration giving a half-maximal response (EC50) of 4 nM.
For `O=S(=O)(c1ccc(OC(F)(F)F)cc1)N1CC2(CN(Cc3ccc(F)cc3)C2)C1` [Cpd B217], the 50% effective concentration (EC50) was found to be 0.46 nM.
As for `O=C(OCC1CCC(F)(F)CC1)N1CC2(CN(Cc3ccccc3C(F)(F)F)C2)C1` [Cpd B165], the figure is 2.49 nM; as for `O=C(Cc1ccnc(Cl)c1)N1CC2(CN(Cc3ccc(F)cc3)C2)C1` [Cpd B442], 200 nM.
As for `COc1cccc(CN2CC3(C2)CN(S(=O)(=O)Cc2ccc(C(F)(F)F)cc2)C3)c1` [Cpd B224], the figure is 12.2 nM.
Then `Cc1cc(CN2CC3(C2)CN(C(=O)Cc2ccc(Cl)cc2)C3)no1` [Cpd B041, 2-(4-chlorophenyl)-1-(6-((5-methylisoxazol-3-yl)methyl)-2,6-diazaspiro[3.3]heptan-2-yl)ethanone], with 141 nM; and `Cc1c(CN2CC3(C2)CN(C(=O)NCc2ccc(F)cc2)C3)cnn1C` [Cpd B413], with 2770 nM; and `O=C(Cc1ccc(Cl)cc1)N1CC2(CN(CC3CCCCC3)C2)C1` [Cpd B056, 2-(4-chlorophenyl)-1-(6-(cyclohexylmethyl)-2,6-diazaspiro[3.3]heptan-2-yl)ethanone], with 1.44 nM.
`COc1ncccc1CN1CC2(C1)CN(C(=O)NCc1ccc(F)cc1)C2` [Cpd B431]: the EC50 was 492 nM.
As to `Cn1ncc(CN2CC3(C2)CN(C(=O)OC2CCC(F)(F)CC2)C3)c1Cl` [Cpd B144], the EC50 was found to be 86.5 nM.
As to `Cc1ccc(CCN2CC3(C2)CN(C(=O)Cc2ccc(Cl)cc2)C3)cc1` [Cpd B047, 2-(4-chlorophenyl)-1-(6-(4-methylphenethyl)-2,6-diazaspiro[3.3]heptan-2-yl)ethanone], the concentration for a half-maximal effect (EC50) worked out at 13.6 nM.
As for `O=C(OCC1CCC(F)(F)CC1)N1CC2(CN(Cc3ccc(F)cn3)C2)C1` [Cpd B161], the figure is 49.3 nM; as for `O=C(Cc1ccc(Cl)cc1)N1CC2(CN(Cc3cscn3)C2)C1` [Cpd B043, 2-(4-chlorophenyl)-1-(6-(thiazol-4-ylmethyl)-2,6-diazaspiro[3.3]heptan-2-yl)ethanone], 79.5 nM.
`CN(Cc1ccccc1)C1CC2(CC(NC(=O)Cc3ccc(F)cc3)C2)C1` (stereo not shown) [Cpd B067, N-(6-(benzyl(methyl)amino)spiro[3.3]heptan-2-yl)-2-(4-fluorophenyl)acetamide] yielded a concentration for a half-maximal effect (EC50) of 3.54 nM.
In the case of `CN(Cc1ccccc1)C1CC2(CC(Nc3nc(Cc4ccc(F)cc4)ns3)C2)C1` (stereo not shown) [Cpd B302, N-benzyl-N′-(3-(4-fluorobenzyl)-1,2,4-thiadiazol-5-yl)-N-methyl spiro[3.3]heptane-2,6-diamine], the half-maximal effective concentration (EC50) turned out to be 0.9 nM.
With `Cc1cccc(CCN2CC3(C2)CN(C(=O)Cc2ccc(Cl)cc2)C3)c1` [Cpd B049, 2-(4-chlorophenyl)-1-(6-(3-methylphenethyl)-2,6-diazaspiro[3.3]heptan-2-yl)ethanone], the EC50 came out at 12.4 nM.
As to `O=C(NCC1CCC(F)(F)CC1)N1CC2(CN(Cc3ccc(C(F)(F)F)cc3)C2)C1` [Cpd B200], the midpoint of the response, the EC50, lay at 29.3 nM.
Then `Cc1nc(CN2CC3(C2)CN(C(=O)OCC2CCC(F)(F)CC2)C3)cs1` [Cpd B156], with 83.3 nM.
Then `Cc1cccnc1CN1CC2(C1)CN(C(=O)CC1CCCCC1)C2` [Cpd B082], with 27.9 nM; and `O=C(OCC1CCC(F)(F)CC1)N1CC2(CN(Cc3ccc(C(F)(F)F)cc3)C2)C1` [Cpd B164], with 19.1 nM; and `O=C(OC1CCC(F)(F)CC1)N1CC2(CN(Cc3ccc(F)cc3F)C2)C1` [Cpd B152], with 2.76 nM.
`COc1ccc(CNC2CC3(C2)CC(Nc2nc(Cc4ccc(Cl)cc4)ns2)C3)c(OC)c1` (stereo not shown) [Cpd B316, N-(3-(4-chlorobenzyl)-1,2,4-thiadiazol-5-yl)-N′-(2,4-dimethoxybenzyl) spiro[3.3]heptane-2,6-diamine] gave an EC50 of 3.1 nM.
Then `Cn1cc(Cl)c(CN2CC3(C2)CN(C(=O)CC2CCC(F)(F)CC2)C3)n1` [Cpd B120], with 4.27 nM.
Then `Cn1cc(CN2CC3(C2)CN(C(=O)OCC2CCC(F)(F)CC2)C3)c(Cl)n1` [Cpd B157], with 9.33 nM; and `O=C(OCC1CCC(F)(F)CC1)N1CC2(CN(Cc3c(F)cccc3C(F)(F)F)C2)C1` [Cpd B448], with 120 nM.
Compound `COc1ccc(CCN2CC3(C2)CN(C(=O)Cc2ccc(F)cc2)C3)cc1` [Cpd B025, 2-(4-Fluoro-phenyl)-1-{6-[2-(4-methoxy-phenyl)-ethyl]-2,6-diaza-spiro[3.3]hept-2-yl}-ethanone] registered an EC50 of 17.9 nM.
As for `O=C(Cc1ccc(F)cc1)N1CC2(CN(Cc3cscn3)C2)C1` [Cpd B022, 2-(4-Fluoro-phenyl)-1-(6-thiazol-4-ylmethyl-2,6-diaza-spiro[3.3]hept-2-yl)-ethanone], the EC50 was determined as 149 nM.
As for `Cc1cccnc1CN1CC2(C1)CN(C(=O)Cc1ccc(C(F)(F)F)cc1)C2` [Cpd B078], the figure is 12.6 nM.
As for `Cc1cccnc1CN1CC2(C1)CN(C(=O)c1cc3ccccc3s1)C2` [Cpd B427], the figure is 846 nM; as for `COc1ccc(CNC2CC3(C2)CC(Nc2nc(Cc4ccc(Cl)cc4)ns2)C3)cc1` (stereo not shown) [Cpd B318, N-(3-(4-chlorobenzyl)-1,2,4-thiadiazol-5-yl)-N′-(4-methoxybenzyl) spiro[3.3]heptane-2,6-diamine], 10.1 nM; as for `Cc1nc(CN2CC3(C2)CN(C(=O)CC2CCC(F)(F)CC2)C3)cs1` [Cpd B102], 26.4 nM.
Then `Cn1cnc(CN2CC3(C2)CN(C(=O)OC2CCC(F)(F)CC2)C3)c1Cl` [Cpd B446], with 150 nM; and `O=C(OCC1CCC(F)(F)CC1)N1CC2(CN(Cc3ncccc3F)C2)C1` [Cpd B162], with 51.6 nM; and `Cc1cccnc1CN1CC2(C1)CN(C(=O)Cc1ccccc1F)C2` [Cpd B436], with 389 nM.
Take `Cn1cc(Cl)c(CN2CC3(C2)CN(C(=O)NC2CCC(F)(F)CC2)C3)n1` [Cpd B209]: it took 15.2 nM to reach a half-maximal effect (EC50).
Then `Cc1cccnc1CN1CC2(C1)CN(C(=O)c1cc3ccccc3o1)C2` [Cpd B412], with 2850 nM; and `O=C(Cc1ccccc1O)N1CC2(CN(Cc3ccc(F)cc3)C2)C1` [Cpd B423], with 972 nM; and `Cc1cccnc1CN1CC2(C1)CN(C(=O)OC1CCCC1)C2` [Cpd B138], with 888 nM.
`O=C(CC1CCC(F)(F)CC1)N1CC2(CN(Cc3ccccc3C(F)(F)F)C2)C1` [Cpd B108] had a concentration giving a half-maximal response (EC50) of 2.58 nM.
As for `O=C(Cc1ccc(F)cc1)N1CC2(CN(Cc3cccc(Cl)c3)C2)C1` [Cpd B011, 1-[6-(3-Chloro-benzyl)-2,6-diaza-spiro[3.3]hept-2-yl]-2-(4-fluoro-phenyl)-ethanone], the figure is 2.07 nM; as for `COc1ccc(CCCN2CC3(C2)CN(C(=O)Cc2ccc(F)cc2)C3)cc1` [Cpd B060, 2-(4-Fluoro-phenyl)-1-{6-[3-(4-methoxy-phenyl)-propyl]-2,6-diaza-spiro[3.3]hept-2-yl}-ethanone], 0.81 nM; as for `CC(Cc1ccccc1)N1CC2(CN(C(=O)Cc3ccc(Cl)cc3)C2)C1` (stereo not shown) [Cpd B054, 2-(4-chlorophenyl)-1-(6-(1-phenylpropan-2-yl)-2,6-diazaspiro[3.3]heptan-2-yl)ethanone], 19.2 nM.
`CC(c1ccccc1)N1CC2(CN(C(=O)Cc3ccc(F)cc3)C2)C1` (stereo not shown) [Cpd B016, 2-(4-Fluoro-phenyl)-1-[6-(1-phenyl-ethyl)-2,6-diaza-spiro[3.3]hept-2-yl]-ethanone] registered an EC50 of 5.51 nM.
The compound `Cc1nc(CN2CC3(C2)CN(C(=O)C(F)(F)c2ccc(F)cc2)C3)cs1` [Cpd B411] displayed a 50% effective concentration (EC50) of 3010 nM.
As for `O=C(Cc1ccc(F)cc1)N1CC2(CN(Cc3ccccn3)C2)C1` [Cpd B010, 2-(4-Fluoro-phenyl)-1-(6-pyridin-2-ylmethyl-2,6-diaza-spiro[3.3]hept-2-yl)-ethanone], the figure is 47.5 nM.
Then `Cc1csc(CN2CC3(C2)CN(C(=O)NC2CCC(F)(F)CC2)C3)c1` [Cpd B210], with 14.6 nM.
Then `O=C(OC1CCC(F)(F)CC1)N1CC2(CN(Cc3ccccc3OC(F)F)C2)C1` [Cpd B149], with 7.58 nM; and `Cc1cccnc1CN1CC2(C1)CN(C(=O)CCC1CCCCC1)C2` [Cpd B081], with 9.69 nM.
As to `O=C(CC1CCC(F)(F)CC1)N1CC2(CN(Cc3ccc(Cl)cn3)C2)C1` [Cpd B113], it took 12.3 nM to reach a half-maximal effect (EC50).
As for `Cn1cc(Cl)c(CN2CC3(C2)CN(C(=O)NCC2CCC(F)(F)CC2)C3)n1` [Cpd B202], the figure is 14.1 nM; as for `N#Cc1ccc(CC(=O)N2CC3(CN(Cc4ccc(F)cc4)C3)C2)cc1` [Cpd B092], 13.9 nM; as for `COc1ccc(CNC2CC3(C2)CC(Nc2nc(Cc4ccc(Cl)cc4)ns2)C3)cc1F` (stereo not shown) [Cpd B313, N-(3-(4-chlorobenzyl)-1,2,4-thiadiazol-5-yl)-N′-(3-fluoro-4-methoxybenzyl) spiro[3.3]heptane-2,6-diamine], 2.9 nM.
For the compound `Cc1ccccc1CC(=O)N1CC2(CN(Cc3ncccc3C)C2)C1` [Cpd B430], the midpoint of the response, the EC50, lay at 690 nM.
As for `O=C(CC1CCC(F)(F)CC1)N1CC2(CN(Cc3ccc(C(F)(F)F)cc3)C2)C1` [Cpd B109], the figure is 12.1 nM.
